Assay results: paper PMC9636434, “Discovery of small molecule agonists of the Relaxin Family Peptide Receptor 2” (Communications Biology, 2022)
Where “and” joins values, the source holds several entries; their conditions need not be identical. Equal values may be shown once. Read-outs that look alike come from different tables or passages of the source.

Assays:
Assay type in all cases: cell-based
[1] = target: T1, WT RXFP1 (Homo sapiens, UniProt Q9HBX9); assay: HTRF cAMP assay in HEK293T cells transiently transfected with WT RXFP1
T1 construct: expressed in transfected cells; host or cells: HEK293T, transient transfection, pcDNA3.1/Zeo(+)
T1 sequence (Q9HBX9 1-757): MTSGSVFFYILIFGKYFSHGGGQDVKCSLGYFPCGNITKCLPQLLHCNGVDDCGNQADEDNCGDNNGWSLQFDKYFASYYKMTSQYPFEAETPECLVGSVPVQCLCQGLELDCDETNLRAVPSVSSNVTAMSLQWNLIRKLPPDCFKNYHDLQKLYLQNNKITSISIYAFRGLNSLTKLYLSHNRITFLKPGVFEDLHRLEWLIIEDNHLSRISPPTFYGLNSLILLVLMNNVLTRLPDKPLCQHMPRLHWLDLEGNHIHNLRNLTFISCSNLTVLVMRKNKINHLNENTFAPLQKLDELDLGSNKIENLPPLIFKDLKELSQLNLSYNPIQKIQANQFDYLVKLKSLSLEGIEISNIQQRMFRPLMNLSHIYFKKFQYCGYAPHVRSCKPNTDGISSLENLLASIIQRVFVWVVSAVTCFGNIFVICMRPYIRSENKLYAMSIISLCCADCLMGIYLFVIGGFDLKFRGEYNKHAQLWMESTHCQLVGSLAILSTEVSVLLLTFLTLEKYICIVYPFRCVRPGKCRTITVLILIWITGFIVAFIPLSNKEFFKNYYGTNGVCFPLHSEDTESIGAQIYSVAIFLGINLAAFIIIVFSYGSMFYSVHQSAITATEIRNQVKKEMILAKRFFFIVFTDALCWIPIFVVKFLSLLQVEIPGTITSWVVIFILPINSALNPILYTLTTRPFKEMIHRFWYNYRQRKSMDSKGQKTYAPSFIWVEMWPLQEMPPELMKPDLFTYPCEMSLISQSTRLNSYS
Procedure: (§1) Fig. 2 6641 is an allosteric agonist of RXFP2. a HEK-RXFP2 cells co-treated with serial dilutions of INSL3 B dimer antagonist and 30 nM INSL3 or 0.28 µM 6641. HTRF cAMP dose-response inhibition curves were normalized to activity without antagonist co-treatment as 0% inhibition. b HTRF cAMP assay in HEK293T cells transiently transfected with WT or chimeric receptors. Chimera RXFP2-1 contains the extracellular domain of RXFP2 and the transmembrane domain of RXFP1, while chimera RXFP1-2 contains the extracellular domain of RXFP1 and the transmembrane domain of RXFP2. For each receptor, cAMP response induced by INSL3 and 6641 was normalized to FSK (2 µM) as 100% efficacy and DMSO vehicle as 0% efficacy. Emax and EC50 were calculated using four parameter nonlinear fit dose-response curves. Results are expressed as mean ± SEM of 3 independent experiments. Diagrams of the chimeric receptors were produced using GPCRdb.org[58], [59].
(§2) Complementary RXFP2-1 and RXFP1-2 chimeric receptors were used to further investigate the involvement of the RXFP2 extracellular and transmembrane domains on 6641 activity. RXFP2-1 has the extracellular domain of RXFP2 and transmembrane domain of RXFP1, and RXFP1-2 is its complement.
The HTRF Gs dynamic cAMP assay kit (CisBio, Bedford, MA) was used to measure intracellular cAMP accumulation in HEK293T cells (ATCC, Manassas, VA)[56]. […] The cell stock was verified mycoplasma free and authenticated by ATCC. Transient transfection was accomplished by treating cells in a 6-well plate with a mixture of 2 μg plasmid and 6 μL Lipofectamine 2000 (Invitrogen, Waltham, MA) per manufacturer’s protocol and incubating overnight. For cAMP measurement in 96-well format, HEK293T cells stably transfected with human RXFP2 (HEK-RXFP2), human RXFP1 (HEK-RXFP1), mouse Rxfp1 (HEK-Rxfp1) or transiently transfected with human RXFP1-RXFP2 chimeric receptors were seeded between 7500 and 30,000 cells per well, depending on cell line responsiveness, in serum-free DMEM medium and incubated overnight at 37 °C, 5% CO2. After 18 h, cells were treated with a titration of compound, 2 μM forskolin, or DMSO vehicle. Control wells were also treated with a titration of INSL3 (Phoenix Pharmaceuticals, Burlingame, CA) or human recombinant relaxin 2 (Peprotech, Cranbury, NJ). For the RXFP2 antagonist experiment, cells were co-treated with 0.28 μM compound or 30 nM INSL3 and a titration of the INSL3 B dimer antagonist[38],[39]. For the INSL3 allosteric modulation experiment, cells were co-treated with 0.025, 0.0025, or 0.00025 μM of compound and a titration of INSL3. […] Plates were incubated for 1 h at room temperature and the signal was read on a CLARIOstar plate reader (BMG Labtech, Ortenberg, Germany) at 665 and 620 nm emission wavelengths.

[2] = target: T2, human RXFP4 (Homo sapiens, UniProt Q8TDU9); assay: GloSensor cAMP assay in RXFP4 transiently transfected HEK293T cells; settings: for RLU (cAMP, raw): RXFP4, 0.1 µM isoproterenol, replicates (1)-(4)
T2 construct: host or cells: HEK293T (transient)

[3] = target: T3, WT RXFP2 (Homo sapiens, UniProt Q8WXD0); assay: HTRF cAMP assay in HEK293T cells transiently transfected with WT RXFP2; settings: for Emax: HEK-293T
T3 construct: FLAG (N); expressed in transfected cells; host or cells: HEK293T (transient)
Procedure: as §1, §2
The HTRF Gs dynamic cAMP assay kit (CisBio, Bedford, MA) was used to measure intracellular cAMP accumulation in HEK293T cells (ATCC, Manassas, VA)[56]. […] The cell stock was verified mycoplasma free and authenticated by ATCC. Transient transfection was accomplished by treating cells in a 6-well plate with a mixture of 2 μg plasmid and 6 μL Lipofectamine 2000 (Invitrogen, Waltham, MA) per manufacturer’s protocol and incubating overnight. For cAMP measurement in 96-well format, HEK293T cells stably transfected with human RXFP2 (HEK-RXFP2), human RXFP1 (HEK-RXFP1), mouse Rxfp1 (HEK-Rxfp1) or transiently transfected with human RXFP1-RXFP2 chimeric receptors were seeded between 7500 and 30,000 cells per well, depending on cell line responsiveness, in serum-free DMEM medium and incubated overnight at 37 °C, 5% CO2. After 18 h, cells were treated with a titration of compound, 2 μM forskolin, or DMSO vehicle. Control wells were also treated with a titration of INSL3 (Phoenix Pharmaceuticals, Burlingame, CA) or human recombinant relaxin 2 (Peprotech, Cranbury, NJ). For the RXFP2 antagonist experiment, cells were co-treated with 0.28 μM compound or 30 nM INSL3 and a titration of the INSL3 B dimer antagonist[38],[39]. For the INSL3 allosteric modulation experiment, cells were co-treated with 0.025, 0.0025, or 0.00025 μM of compound and a titration of INSL3. Cells were incubated for 1 h at 37 °C, 5% CO2, and then kit cAMP-d2 and anti-cAMP antibody were added per manufacturer protocol. Plates were incubated for 1 h at room temperature and the signal was read on a CLARIOstar plate reader (BMG Labtech, Ortenberg, Germany) at 665 and 620 nm emission wavelengths.

T3 sequence (Q8WXD0 whole entry): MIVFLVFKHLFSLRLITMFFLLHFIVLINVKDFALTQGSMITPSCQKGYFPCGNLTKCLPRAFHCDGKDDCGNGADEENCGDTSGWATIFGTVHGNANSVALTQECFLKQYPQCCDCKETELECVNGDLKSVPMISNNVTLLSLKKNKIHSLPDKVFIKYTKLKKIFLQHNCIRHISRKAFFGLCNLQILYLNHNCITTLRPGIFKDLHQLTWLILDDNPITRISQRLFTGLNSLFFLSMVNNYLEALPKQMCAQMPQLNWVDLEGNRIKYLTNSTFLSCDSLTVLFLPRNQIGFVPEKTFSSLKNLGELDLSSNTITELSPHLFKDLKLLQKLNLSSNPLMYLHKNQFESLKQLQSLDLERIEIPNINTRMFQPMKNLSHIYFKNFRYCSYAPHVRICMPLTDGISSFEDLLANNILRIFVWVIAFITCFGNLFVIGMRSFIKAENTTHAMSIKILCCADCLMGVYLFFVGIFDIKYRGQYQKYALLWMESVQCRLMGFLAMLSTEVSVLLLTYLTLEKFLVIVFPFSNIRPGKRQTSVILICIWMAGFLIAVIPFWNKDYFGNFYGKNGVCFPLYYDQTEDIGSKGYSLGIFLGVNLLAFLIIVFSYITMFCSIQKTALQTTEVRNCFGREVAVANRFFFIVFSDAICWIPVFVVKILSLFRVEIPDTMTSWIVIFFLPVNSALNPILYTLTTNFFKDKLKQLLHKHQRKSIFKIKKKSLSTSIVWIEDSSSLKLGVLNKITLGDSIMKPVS
T2 sequence (Q8TDU9 whole entry): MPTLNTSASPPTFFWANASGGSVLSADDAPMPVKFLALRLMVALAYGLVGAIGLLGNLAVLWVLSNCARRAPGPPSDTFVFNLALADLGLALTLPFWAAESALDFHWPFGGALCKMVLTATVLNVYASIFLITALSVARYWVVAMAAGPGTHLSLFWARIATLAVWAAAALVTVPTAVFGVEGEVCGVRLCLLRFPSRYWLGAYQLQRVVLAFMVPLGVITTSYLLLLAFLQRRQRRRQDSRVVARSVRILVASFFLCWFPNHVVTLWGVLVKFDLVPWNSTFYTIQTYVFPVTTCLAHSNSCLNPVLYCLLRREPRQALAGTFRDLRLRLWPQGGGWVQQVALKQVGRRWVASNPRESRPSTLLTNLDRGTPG

## O=C1Nc2ccc(-c3cc(C(F)(F)F)cc(C(F)(F)F)c3)cc2C(=O)N2CCN(C(=O)COc3ccc(OC(F)(F)F)cc3I)C[C@@H]12 [compound 6641]
[1]; 6641, individual experiments
  EC50 (1)-(3): Inactive
[1]; 6641, mean of 3
  EC50 (AVERAGE): Inactive
[1]; individual experiments, FSK (2 µM) = 100% efficacy
  Emax (1)-(3): Inactive
[1]; mean of 3, FSK (2 µM) = 100% efficacy
  Emax (AVERAGE): Inactive
[2]; Log [M] -4.52
  RLU (cAMP, raw): 2463.26 RLU and 2323.36 RLU and 2574.77 RLU and 2436.25 RLU
[2]; Log [M] -5
  RLU (cAMP, raw): 3185.64 RLU and 3376.11 RLU and 2670.35 RLU and 2223.62 RLU
[2]; Log [M] -5.52
  RLU (cAMP, raw): 2765.92 RLU and 2530.44 RLU and 2513.13 RLU and 2428.63 RLU
[2]; Log [M] -6
  RLU (cAMP, raw): 3247.28 RLU and 3052.66 RLU and 2557.45 RLU and 2549.14 RLU
[2]; Log [M] -6.52
  RLU (cAMP, raw): 2853.88 RLU and 2734.06 RLU and 2619.79 RLU and 2767.31 RLU
[2]; Log [M] -7
  RLU (cAMP, raw): 2986.17 RLU and 3107.38 RLU and 2961.24 RLU and 2947.39 RLU
[2]; Log [M] -7.52
  RLU (cAMP, raw): 3270.14 RLU and 3165.55 RLU and 2781.16 RLU and 2887.13 RLU
[2]; Log [M] -8
  RLU (cAMP, raw): 3594.97 RLU and 2898.21 RLU and 2737.53 RLU and 2621.17 RLU
[2]; Log [M] -8.52
  RLU (cAMP, raw): 2962.83 RLU and 3046.77 RLU and 3010.47 RLU and 2788.15 RLU
[2]; Log [M] -9
  RLU (cAMP, raw): 3689.54 RLU and 3613.16 RLU and 3120.12 RLU and 2641.44 RLU
[2]; Log [M] -9.52
  RLU (cAMP, raw): 3253.97 RLU and 3351.52 RLU and 2965.85 RLU and 3151.88 RLU
[2]; Log [M] -10
  RLU (cAMP, raw): 3784.82 RLU and 3051.3 RLU and 3541.33 RLU and 3042.99 RLU
[2]; Log [M] -10.52
  RLU (cAMP, raw): 2937.88 RLU and 2859.99 RLU and 3018.03 RLU and 2959.05 RLU
[2]; Log [M] -11
  RLU (cAMP, raw): 3244.89 RLU and 3354.54 RLU and 2788.9 RLU and 3100.46 RLU
[2]; Log [M] -11.52
  RLU (cAMP, raw): 3393.86 RLU and 2984 RLU and 2869.06 RLU and 2844.86 RLU
[2]; Log [M] -12
  RLU (cAMP, raw): 3689.54 RLU and 3235.82 RLU and 3343.96 RLU and 2573.39 RLU
[2]; cAMP induced by 0.1 µM isoproterenol
  activation of RXFP4 (cAMP inhibition): does not activate
[3]; 6641, individual experiments, read-out: EC50 (1)-(3)
  EC50: 4.7 nM and 28 nM and 3.17 nM
[3]; 6641, mean (± SEM) of 3, read-out: EC50 (AVERAGE)
  EC50: 12 nM
[3]; individual experiments, FSK (2 µM) = 100% efficacy, DMSO = 0%, read-out: Emax (1)-(3)
  Emax: 91.1%
[3]; mean (± SEM) of 3, FSK (2 µM) = 100% efficacy, read-out: Emax (AVERAGE)
  Emax: 86.3%
[3]; individual experiments, FSK (2 µM) = 100% efficacy, DMSO = 0%
  Emax (1)-(3): 79.79% and 88%
